Earlier results in US5096924A, “Anticancer antibiotic MI43-37F11 substance” (501 Azidan Hojin Biseibutsu Kagaku Kenkyu Kai, priority 1989, dated 1992).

Tested on: cyclic adenosine monophosphate (CAMP) phosphodiesterase
Conditions: disclosed in Japanese Kokai No. 71076/78; cited from earlier work

Compound | inhibitory activity to cyclic adenosine monophosphate (CAMP) phosphodiesterase
COc1c(O)cc2cc(CO)oc(=O)c2c1O [3-hydroxymethyl-6,8-dihydroxy-7-methoxyisocumarin] | inhibitory activity
COc1cc2cc(CO)oc(=O)c2c(O)c1OC [3-hydroxymethyl-6,7-dimethoxy-8-hydroxyisocumarin] | inhibitory activity
